# Test results: paper PMC3198786, “LL37 and Cationic Peptides Enhance TLR3 Signaling by Viral Double-stranded RNAs” (PLoS ONE, 2011)
# Columns and labels:
# TLR3 = TLR3 ISRE luciferase reporter assay in 293T/TLR3 cells; type: cell-based, human; conditions: for Fold induction above Reovirus dsRNA (293T/TLR3 reporter): 293T/TLR3 cells, reovirus genomic RNA 2 µg/ml, peptides 2 µM, ISRE luciferase reporter
# Protocol: Luciferase reporter assays were performed according to the protocol of [36]. Briefly, HEK 293T cells were plated in white-walled 96-well plates at 4.4×10^4 cells/well and transfected with plasmids pUNO-huTLR3 (0.5 ng/well), pISRE-Luc (30 ng/well) and phRL-TK (5 ng/well) using Lipofectamine 2000. The cells were grown for 24 h to allow expression from the plasmids. […] After 18–24 h of incubation, luciferase activity was determined using the Dual-Glo Luciferase assay system (Promega).
# TLR4 signaling = test: LPS-induced IL6 production by BEAS2B cells (ELISA); type: cell-based, human; conditions: LPS 1 µg/ml, T3/T4 0.6–10 µM, Tat and Arg(9) 10 µM
# Protocol: (§1) BEAS2B cells were plated at 1.5×10^4 cells/well in 96-well plates. 24 h after plating, the media was replaced with 50 µl of media containing the indicated treatments. Unless otherwise noted, poly(I:C) and LPS were added to the medium of cells to final concentrations of 0.13 µg/ml and 1 µg/ml, respectively. To activate RIG-I, 10 nM shR9 with a 5′ triphosphate was transfected into cells using Lipofectamine 2000 (Invitrogen, Carlsbad, CA). Supernatants were collected after 18-24 h and assayed for IL6 or IL8 secretion using an ELISA kit according to the manufacturer's protocol (BD Biosciences, San Diego, CA). The IL6 or IL8 level was calculated based on a standard curve fitted using a sigmoidal variable slope dose-response using software from GraphPad Prism (La Jolla, CA) and normalized to […] per well. For PBMCs, an initial 150,000 cells per well were suspended in 100 µl of RPMI medium (Invitrogen) containing 10% FBS and incubated overnight at 37°C, 5% CO2. The cells were treated with poly(I:C) at 5 µg/ml in the absence or presence of LL37 (5.6 µM) for 20–24 h. […] The supernatants were collected and frozen until analysis. Cytokine levels for IP10, IL1α and MCP1 were measured using a Milliplex assay kit (Millipore, Billerica, MA).
# TLR3 signaling [1] = test: poly(I:C)-induced IL6 production by BEAS2B cells (ELISA); type: cell-based, human; conditions: for Fold induction above poly(I:C) induced IL6 production (BEAS2B): BEAS2B cells, 0.13 µg/ml poly(I:C) ± peptides (5 µM), IL6 ELISA, number of experiments in parentheses, duplicate or triplicate per experiment
# Protocol: as §1
# [2] = Negative-stain electron microscopy of particle dimensions; type: physicochemical; conditions: negative-stain TEM, pH 7.4, linear regression
# Protocol: Poly(I:C) at 50 µg/ml (low molecular weight, Invitrogen) was incubated alone or with LL37 or Sc37 (each at 10 µM) in Tris-buffered saline, pH 7.4 at 4°C for 15 min. Sample of 10 µl was placed on top of a glow-discharged 400 mesh carbon-coated copper grid (EMS). After one min incubation at RT, the drop was removed by absorption onto filter paper. The grids containing the samples were then stained with 2% uranium acetate for 20 s. Excess stain was removed and the grids were air-dried for 15 min. Micrographs of the grids were taken with JEOL transmission microscope at 80 kV, using 40,000x magnification. The micrographs were collected and measurement of length and width of particles were calculated using EMAN software as described by. Data points for each treatment were fitted using linear regression and the slope of each line was calculated using GraphPad Prism software.
# [3] = system: human peripheral blood mononuclear cells (PBMCs); test: Cytokine production in human PBMCs (Milliplex); type: cell-based; conditions: peptide 5.6 µM
# Protocol: as §1
# BEAS2B cells = test: WST-1 viability of BEAS2B cells; type: cell-based, human
# Protocol: Supplementary file pone.0026632.s002.tif: Figure S2 Effects of LL37 concentration on viability of BEAS2B cells±poly(I:C). Cell viability was assessed using the WST-1 assay (Clontech, Mountain View CA). After treatments, cells were incubated with WST-1 substrate for 4 h and absorbance was measured at 450 nm with 630 nm as reference. The readout performed in the absence of LL37 (i.e. Control) is defined as 100%. […] The graph is representative of five experiments. […] (TIF) Click here for additional data file.
# TLR3 signaling [4] = test: Viral RNA-induced IL6 production by BEAS2B cells; type: cell-based, human; conditions: Sc37 2.2 µM, n>4
# Protocol: Poly(I:C) (Amersham Biosciences or GE Healthcare) was reconstituted in phosphate buffered saline (PBS; Invitrogen, Carlsbad, CA). Size-selected Poly(I:C) of 50–125 bps were generated as described previously. Fluorescently-labeled Cy5-poly(I:C) was made as described in [43]. LPS was from Sigma-Aldrich Inc. DsRNAs from Reovirus were extracted from purified virions (a kind gift from Dr. Danthi, Indiana University). […] The ssRNAs were then adjusted to a 1∶1 molar ratio in PBS and heated to 95°C for five minutes followed by slow cooling to room temperature to allow the strands to anneal to form S4 dsRNA. Plant endornavirus BPEV dsRNA was the kind gift of R. Valverde (Louisana State University, Baton Rouge, LA). Positive-strand ssRNA from hepatitis virus JFH1 was made by in vitro transcription from a cDNA of JFH-1 [63]. Plasmids encoding the wild-type TLR3, TLR4 and RIG-I were from InvivoGen (San Diego, CA). […]
# BEAS2B cells were plated at 1.5×10^4 cells/well in 96-well plates. […] The IL6 or IL8 level was calculated based on a standard curve fitted using a sigmoidal variable slope dose-response using software from GraphPad Prism (La Jolla, CA) and normalized to µg/ml per well. […] Cytokine levels for IP10, IL1α and MCP1 were measured using a Milliplex assay kit (Millipore, Billerica, MA).
compound,measurement,setting,value
"TRAQRRAAARRNRACCPGCCS [T3, peptide derived from the Brome mosaic virus (BMV) capsid]",Fold induction above Reovirus dsRNA (293T/TLR3 reporter),TLR3,1.3±0.08 (4) fold
same,Effect on LPS-induced IL6 production,TLR4 signaling,not affected
same,Fold induction above poly(I:C) induced IL6 production (BEAS2B),TLR3 signaling [1],3±0.4 (8) fold
poly(I:C),Slope of best fit line of particle lengths and widths,[2],0.53 ± 0.12
same,IL6 levels above basal levels,"TLR3 signaling [1]; BEAS2B, poly(I:C) added to medium, n = 12",15 ± 2.2 fold
TRAQRRAAARGGGVVIAC [Peptide 3],Fold induction above Reovirus dsRNA (293T/TLR3 reporter),TLR3,1 fold
same,Fold induction above poly(I:C) induced IL6 production (BEAS2B),TLR3 signaling [1],3±0.62 (8) fold
O=C(O[C@@H]1Cc2c(O)cc(O)cc2O[C@@H]1c1cc(O)c(O)c(O)c1)c1cc(O)c(O)c(O)c1 [EGCG],Effect on the Tat peptide's enhancement of IL6 production,"TLR3 signaling [1]; BEAS2B, data not shown",did not affect
"RRRRRRRRR [Arg(9), cell-penetrating peptide of nine arginines]",Fold induction above Reovirus dsRNA (293T/TLR3 reporter),TLR3,1.5±0.17 (4) fold
same,Effect on LPS-induced IL6 production,TLR4 signaling,no effect on LPS signaling
COc1cc2ncnc(Nc3cccc(Cl)c3)c2cc1OC [tyrphostin AG 1478],Effect on IL6 production induced by poly(I:C) or poly(I:C) in combination with LL37,"TLR3 signaling [1]; BEAS2B, unpublished observations",had no effect
mCRAMP,Enhancement of IL6 production in response to poly(I:C),"TLR3 signaling [1]; BEAS2B, KR18-37 4 µM, mCRAMP 5 µM, poly(I:C) 0.13 µg/ml, 24 h, n = 3",unable to enhance IL6 production
"TSAQSSAAASSNSACCPGCCS [T3Ser, variant of the peptide T3 that had the arginines substituted with serines]",Fold induction above Reovirus dsRNA (293T/TLR3 reporter),TLR3,1 fold
same,Fold induction above poly(I:C) induced IL6 production (BEAS2B),TLR3 signaling [1]; 5 µM,0.8±0.12 (4) fold
same,Fold induction above poly(I:C) induced IL6 production (BEAS2B),"TLR3 signaling [1]; listed as T3ser, 5 µM",lost the ability to enhance IL6 production
CC[C@H](C)[C@H](NC(=O)[C@H](CCCCN)NC(=O)[C@H](CCC(=O)O)NC(=O)[C@H](CCCCN)NC(=O)[C@H](CO)NC(=O)[C@H](CCCCN)NC(=O)[C@H](CCCNC(=N)N)NC(=O)[C@H](Cc1ccccc1)NC(=O)[C@H](Cc1ccccc1)NC(=O)[C@H](CC(=O)O)NC(=O)CNC(=O)[C@H](CC(C)C)NC(=O)[C@@H](N)CC(C)C)C(=O)NCC(=O)N[C@@H](CCCCN)C(=O)N[C@@H](CCC(=O)O)C(=O)N[C@@H](Cc1ccccc1)C(=O)N[C@@H](CCCCN)C(=O)N[C@@H](CCCNC(=N)N)C(=O)N[C@H](C(=O)N[C@H](C(=O)N[C@@H](CCC(N)=O)C(=O)N[C@@H](CCCNC(=N)N)C(=O)N[C@H](C(=O)N[C@@H](CCCCN)C(=O)N[C@@H](CC(=O)O)C(=O)N[C@@H](Cc1ccccc1)C(=O)N[C@@H](CC(C)C)C(=O)N[C@@H](CCCNC(=N)N)C(=O)N[C@@H](CC(N)=O)C(=O)N[C@@H](CC(C)C)C(=O)N[C@H](C(=O)N1CCC[C@H]1C(=O)N[C@@H](CCCNC(=N)N)C(=O)N[C@H](C(=O)N[C@@H](CCC(=O)O)C(=O)N[C@@H](CO)C(=O)O)[C@@H](C)O)C(C)C)[C@@H](C)CC)C(C)C)[C@@H](C)CC [LL37],Cytotoxicity judged by morphology of PBMCs,[3]; data not shown,no obvious cytotoxicity
same,Toxicity in the presence of poly(I:C),"BEAS2B cells; BEAS2B, WST-1, LL37 3 µM",did not show significant toxicity
same,Effect on cell viability in the absence of poly(I:C),"BEAS2B cells; BEAS2B, WST-1, LL37 up to 5 µM, representative of five experiments",no effect on cell viability
same,Effect on BEAS2B cell viability,"BEAS2B cells; at or less than 3 µM, by itself or in the presence of poly(I:C), WST-1, n = 5",minimal effects
"YGRKKRRQRRR [Tat47-57, Tat peptide that is rich in basic residues; cell-penetrating peptide]",Fold induction above Reovirus dsRNA (293T/TLR3 reporter),TLR3,1.3±0.19 (3) fold
same,Effect on LPS-induced IL6 production,TLR4 signaling,no effect on LPS signaling
same,Fold induction above poly(I:C) induced IL6 production (BEAS2B),TLR3 signaling [1]; 5 µM,3.7±0.43 (10) fold
same,Fold induction above poly(I:C) induced IL6 production (BEAS2B),"TLR3 signaling [1]; listed as Tat peptide, 5 µM",at least 2.9 fold
"RQIKIWFQNRRMKWKK [Penetrin, peptide derived from the protein antennapedia; cell-penetrating peptide]",Fold induction above Reovirus dsRNA (293T/TLR3 reporter),TLR3,1.1±0.05 (4) fold
same,Fold induction above poly(I:C) induced IL6 production (BEAS2B),TLR3 signaling [1],2.9±1.2 (3) fold
LLGNFFRKSKQKIGKQFKRIVQRIKNFFRNLVPRTQS [Sc37],Slope of best fit line of particle lengths and widths,[2],0.8 ± 0.05
same,Effect on IL6 production by the viral RNAs tested,TLR3 signaling [4],did not increase IL6 production
same,Additional increase of reporter levels above that of the Reovirus dsRNAs,"TLR3; 293T/TLR3, peptide 2 µM, Reovirus dsRNA, LL37 n = 8, Sc37 n = 4",did not affect reporter activity
same,Fold induction above Reovirus dsRNA (293T/TLR3 reporter),TLR3,1.0±0.03 (9) fold
same,Fold induction above poly(I:C) induced IL6 production (BEAS2B),TLR3 signaling [1],1.05±0.11 (6) fold
same,Enhancement of poly(I:C)-induced IL6 levels compared to poly(I:C) alone,"TLR3 signaling [1]; BEAS2B, peptide 2.2 µM, poly(I:C) 0.13 µg/ml, 20 h, LL37 n = 23, Sc37 n = 7",did not enhance IL6 production
same,"Increase of IL1α, MCP1 and IP10 levels with poly(I:C) above poly(I:C) or peptide alone","[3]; poly(I:C) 5 µg/ml, 24 h, n = 3",did not significantly increase
"TRAQRRAAARGVQIVYKC [T4, peptide derived from the Brome mosaic virus (BMV) capsid]",Fold induction above Reovirus dsRNA (293T/TLR3 reporter),TLR3,1 fold
same,Effect on LPS-induced IL6 production,TLR4 signaling,not affected
same,Fold induction above poly(I:C) induced IL6 production (BEAS2B),TLR3 signaling [1],5.6±1.4 (6) fold
"NAKTRRHERRRKLAIER [P22N(14-30), arginine-containing peptide]",Fold induction above Reovirus dsRNA (293T/TLR3 reporter),TLR3,1.3±0.14 (4) fold
same,Fold induction above poly(I:C) induced IL6 production (BEAS2B),TLR3 signaling [1]; 5 µM,1.0±0 (3) fold
same,Fold induction above poly(I:C) induced IL6 production (BEAS2B),"TLR3 signaling [1]; listed as P22(14-30), 5 µM",did not enhance TLR3 signaling
